These results are taken from patent publication US20230371515A1, “FUNGICIDAL COMBINATION” (UPL Limited, priority 2020, published 2023).

Where two headings read alike, the source gives them in different places.

By EC50 is commonly meant the concentration needed to bring the measured effect to its halfway point.

In assay [1] the test system is Botrytis cinerea. The experiment in a line: Fungicidal efficacy trial (% control) on Botrytis cinerea, synergy by Colby's equation. The following applies: concentration 0.01 mg/L, observed efficacy. In kind it is cell-based. The source says: [table] Colby's equation was used to determine the fungicidal effects expected from the mixtures. The following equation was used to calculate the expected activity of mixtures containing two active ingredients, A and B: Expected=A+B−(A×B/100) • A=observed efficacy of active component A at the same concentration as used in the mixture; • B=observed efficacy of active component B at the same concentration as used in the mixture.

Assay [2] deals with spores of Botrytis cinerea. The assay is described as follows: EC50 for in vitro inhibition of 50% of fungal population of spores of Botrytis cinerea. Type of assay: cell-based. The procedure:
As used herein, according to the Fungicide Resistance Action Committee (FRAC), ‘EC50’ is defined as the fungicide dose that inhibits growth by 50% when compared with a nonamended control.
The EC50 values were evaluated to determine a lower concentration of the fungicides and the combination to achieve in vitro inhibition of 50% of fungal population of spores of Botrytis cinerea.

Take `O=C1C2CC=CCC2C(=O)N1SC(Cl)(Cl)Cl` (stereo not shown) [Captan]: in assay [1], the “% control” value worked out at 11.54%. Moreover, the EC50 in assay [2] (read-out: EC50) amounted to 0.15 µg/mL.
As for `COc1ccnc(C(=O)N[C@H]2COC(=O)[C@H](Cc3ccccc3)[C@@H](OC(=O)C(C)C)[C@H](C)OC2=O)c1OCOC(=O)C(C)C` [Fenpicoxamide], in assay [1], the “% control” value was found to be 15.45%. Moreover, the EC50 in assay [2] worked out at 0.46 µg/mL.
